Test results taken from patent US6806230B1, “Pyrimidine derivatives and herbicides containing them” (Kumiai Chemical Industry Co., Ltd., priority 1999, dated 2004).

Tests used:
Assay type in all cases: in vivo
barnyard grass (Eo) [1] = test: Test Example 4: selectivity for a crop plant by flooded paddy field treatment; parameters: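 0-5 growth inhibition grade; 5 = over 90%; 4 = 70-90%; 3 = 50-70%; 2 = 30-50%; 1 = 10-30%; 0 = under 10%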; conditions: barnyard grass, dose 25 gai/10a, 21st day after treatment, index per Table 44
Experimental: (§1) In a 100 cm^2 plastic pot, a paddy field soil was filled and paddled. Then, seeds of barnyard grass (Eo) and monochoria (Mo) were sown, and rice (Or) of second leaf stage was transplanted, and water was introduced to a depth of 3 cm. Next day, a wettable powder prepared in accordance with Formulation Example 1 was diluted with water and dropwise applied to the water surface. The dose was 25 g of the active ingredient per 10 ares. Thereafter, cultivation was carried out in a green house, and on the 21st day after the treatment, the herbicidal effects were examined in accordance with the standards of Table 44.

rice (Or) = test: as above; parameters: scale not given here; conditions: rice transplanted at second leaf stage, dose 25 gai/10a, 21st day after treatment, index per Table 44
Experimental: as §1

monochoria (Mo) [2] = test: as above; parameters: scale not given here; conditions: monochoria, dose 25 gai/10a, 21st day after treatment, index per Table 44
Experimental: as §1

barnyard grass (Ec) = test: Test Example 2: herbicidal effects by upland soil treatment; parameters: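 0-5 growth inhibition grade; 5 = over 90%; 4 = 70-90%; 3 = 50-70%; 2 = 30-50%; 1 = 10-30%; 0 = under 10%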; conditions: dose 100 g active ingredient per 10 ares, examined on the 21st day after treatment
How it was run: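 Pre-emergence test: barnyard grass and green foxtail sown in upland soil, then soil surface sprayed with wettable-powder formulation at 100 g active ingredient per 10 ares (100 l per 10 ares). Grown in greenhouse; herbicidal effect scored on a rating scale 21 days after treatment.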

barnyard grass (Eo) [3] = test: Test Example 1: herbicidal effects by flooded paddy field treatment; parameters: herbicidal effects, Eo (barnyard grass):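 0-5 growth inhibition grade; 5 = over 90%; 4 = 70-90%; 3 = 50-70%; 2 = 30-50%; 1 = 10-30%; 0 = under 10%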; conditions: dose 100 g active ingredient per 10 ares, examined on the 21st day after treatment, standards of Table 44
How it was run: (§2)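 Pots hold puddled paddy soil; seeds are sown and the pots flooded 3 cm deep. Next day, diluted wettable powder goes dropwise onto the water at a dose of 100 g active ingredient per 10 ares, and herbicidal effects are rated after 21 days in a greenhouse.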

monochoria (Mo) [4] = test: as above; parameters: herbicidal effects, Mo (monochoria):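 0-5 growth inhibition grade; 5 = over 90%; 4 = 70-90%; 3 = 50-70%; 2 = 30-50%; 1 = 10-30%; 0 = under 10%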; conditions: dose 100 g active ingredient per 10 ares, examined on the 21st day after treatment, standards of Table 44
How it was run: as §2

Compound	Eo (herbicidal effect index) (barnyard grass (Eo) [1])	Or (herbicidal effect index on crop) (rice (Or))	Mo (herbicidal effect index) (monochoria (Mo) [2])	Ec (herbicidal effects, index) (barnyard grass (Ec))	herbicidal effects, Eo (barnyard grass) (barnyard grass (Eo) [3])	herbicidal effects, Mo (monochoria) (monochoria (Mo) [4])
Cc1ccc(CC(=O)N(C)C(c2ccsc2)c2cncnc2C(F)(F)F)cc1 (racemic) [1-443]	5	1	5	5	5	5
CC(C)C(c1cncnc1C(F)(F)F)N(C)C(=O)Cc1cc(F)cc(F)c1F (racemic) [1-444]	5	1	5	5	5	5
CCCc1ncncc1C(C(C)C)N(C)C(=O)Cc1ccc(C)cc1 (racemic) [1-448]	5	1	5	5	5	5
CON=CC(c1cncnc1C(C)C)N(C)C(=O)Cc1ccc(C)cc1 (racemic) [1-465]	5	0	5	5	5	5
Cc1ccc(CC(=O)N(CC#N)C(c2cncnc2C(F)(F)F)C(C)C)cc1 (racemic) [1-483]	5	1	5	5	5	5
COc1ccc(C(c2cncnc2C(F)(F)F)N(C)C(=O)Cc2ccc(F)cc2)cc1 (racemic) [1-485]	5	1	5	5	5	5
CCCc1ncncc1C(CCC)N(C)C(=O)Cc1ccc(C)cc1 (racemic) [1-495]	5	0	5	5	5	5
CON=Cc1ncncc1C(C(C)C)N(C)C(=O)Cc1ccc(Cl)cc1 (racemic) [1-498]	5	0	5	5	5	5
COC(C)(OC)C(c1cncnc1C(C)C)N(C)C(=O)Cc1ccc(Cl)cc1 (racemic) [1-511]	5	0	5	4	5	5
C=CCN(C(=O)Cc1ccc(Cl)cc1)C(c1cncnc1C(F)(F)F)C(C)C (racemic) [1-520]	5	1	5	5	5	5
C=CCN(C(=O)Cc1ccc(C)cc1)C(c1cncnc1C(F)(F)F)C(C)C (racemic) [1-521]	5	1	5	5	5	5
C#CCN(C(=O)N(C)C(c1cncnc1C(F)(F)F)C(C)C)c1ccc(F)cc1 (racemic) [1-533]	5	1	5	5	5	5
CN(C(=O)Cc1ccc(Cl)cc1)C(c1ccccc1F)c1cncnc1C(F)(F)F (racemic) [1-548]	5	1	5	5	5	5
Cc1ccc(CC(=O)N(C)C(c2ccccc2F)c2cncnc2C(F)(F)F)cc1 (racemic) [1-549]	5	0	5	5	5	5
Cc1ccccc1C(c1cncnc1C(F)(F)F)N(C)C(=O)Cc1ccc(F)cc1 (racemic) [1-551]	5	0	5	5	5	5
Cc1ccc(CC(=O)N(C)C(c2ccccc2C)c2cncnc2C(F)(F)F)cc1 (racemic) [1-553]	5	1	5	5	5	5
CCc1ncncc1C(N(C)C(=O)Cc1ccc(C)cc1)C(C)(C)C (racemic) [1-567]	5	1	5	5	5	5
CCC(c1cncnc1C(C)(C)C)N(C)C(=O)Cc1ccc(C)cc1 (racemic) [1-573]	5	1	5	5	5	5
COC1(C(c2cncnc2C(C)C)N(C)C(=O)Cc2ccc(C)cc2)OCCO1 (racemic) [1-604]	5	1	5	5	5	5
C#CCN(C(=O)Cc1ccc(Cl)cc1)C(CCC)c1cncnc1CC (racemic) [1-608]	5	1	5	5	5	5
C#CCN(C(=O)Cc1ccc(F)c(F)c1)C(c1cncnc1C(F)(F)F)C(C)C (racemic) [1-614]	5	1	5	5	5	5
C#CCN(C(=O)Cc1ccc(C)cc1)C(c1cncnc1C(C)C)C(C)C (racemic) [1-624]	5	1	5	5	5	5
C#CCN(C(=O)Cc1ccccc1)C(c1cncnc1CC)C(C)(C)C (racemic) [1-626]	5	1	5	5	5	5
C#CCN(C(=O)Cc1ccc(F)cc1)C(c1cncnc1CC)C(C)(C)C (racemic) [1-627]	5	1	5	5	5	5
CC(C)C(c1cncnc1C(F)(F)Cl)N(C)C(=O)OCc1ccccc1 (racemic) [1-639]	5	1	4	5	5	5
CC(C)C(c1cncnc1C(F)(F)F)N(C)C(=O)Cc1ccc2ccccc2c1 (racemic) [2-1]	5	0	5	5	5	5
CC(C)C(c1cncnc1C(F)(F)F)N(C)C(=O)Cc1ccsc1 (racemic) [2-2]	5	1	5	5	5	5
CCN(C(=O)Cc1cccs1)C(c1cncnc1C(F)F)C(C)C (racemic) [2-7]	5	1	5	5	5	5
